These results are taken from patent US8716437B2 (priority 2007, dated 2014).

Assay [1] deals with antiserum to sarafotoxin s6b (anti-S6b). In words: Phage panning on immobilized antiserum to sarafotoxin s6b. The note with it: mixture of five ligands, one round of panning. Type of assay: binding. An excerpt:
A mixture of five ligands: (1) kaliotoxin-1; (2) sarafotoxin s6b; (3) Dendroaspis natriuretic peptide (DNP); (4) fasciculin-2; and (5) camel antibody (CVHH); were mixed and panned on purified receptors (KcsA-Kv1.3). The control was immobilized antiserum to sarafotoxin s6b (anti-S6b). Input and output ligands were verified by genotyping. In this system, shown in Table 6, a 3.6-fold enrichment is seen after one-round of panning.

In the next assay the test system is guinea pig ileum. Conditions: J Pharmacol Exp Ther. 1999; cited from earlier work.
The target of another assay is T1, BK (Mus musculus, UniProt Q08460).
T1 construct: expressed in transfected cells; host or cells: Xenopus laevis oocytes (cRNA injection)
In words: Two electrode voltage clamp, Xenopus oocytes, BK. The assay is classed as cell-based. Here is the method: (§1) To examine the effect of mokatoxin-1 on activity of potassium ion channels, cDNA encoding Rattus Kv1.1 (NCBI accession number NM_173095), Rattus Kv1.2 (NM_012970), Homo Kv1.3 (NM_002232), or Mus BK (NM_010610) were subcloned into oocyte expression vectors based on PCR3.1 and pGEM. cRNA synthesis was performed with T7 polymerase and the mMessageMachine Kit (Ambion, Austin, Tex.) according to manufacturers instructions. cRNA concentrations were determined spectroscopically. For two electrode voltage clamp recordings oocytes were extracted from Xenopus laevis and defoliculated with Collagenase Type 2 (Worthington, Lakewood, N.J.). Oocytes were maintained in ND91 solution containing 2 mM KCl, 91 mM NaCl, 1 mM MgCl2, 1.8 mM CaCl2, and 5 mM HEPES, pH 7.5, supplemented with 1% Penicillin/Streptomycin (Cellgro, Hemdon, Va.) and 0.1% Gentamycin sulfate (Gibco, Grand Island, N.Y.)) at 16° C. Stage V and VI oocytes were injected with 8 pg to 4 ng cRNA, and currents recorded 1 to 4 days later.
(§2) For dose-response measurements of toxin block of Kv1.1, Kv1,2, or Kv1.3 peak currents were recorded during a 500 ms step to 0 mV from a holding voltage of −100 mV, followed by a 200 ms step to −135 mV every 30 s. To determine the kinetics of toxin block oocytes were held at −100 mV and stepped to the test voltage of 0 mV for 100 ms followed by a 200 ms duration step to −135 mV every 2 s. BK currents were recorded during a 50 ms step to +60 mV from a holding voltage of −80 mV, followed by a 40 ms step to −100 mV every 3 s. The perfusion solution contained 2 mM KCl, 96 mM NaCl, 1 mM MgCl2, 1.8 mM CaCl2, 5 mM HEPES, pH 7.5 and 0.1% fatty acid ultra-free BSA fraction V (Roche Diagnostics Corporation, Indianapolis, Ind.). Data acquisition and processing was performed with an oocyte clamp OC-725B (Warner Instruments Corporation, Hamden, Conn.), pCLAMP (Axon, Sunnyvale, Calif.), IGOR Pro (WaveMetrics, Lake Oswego, Oreg.), and Origin6.1 (OriginLab Corporation, Northampton, Mass.) softwares. The equilibrium dissociation rates (KD) for block of Kv1.1, Kv1.2, and Kv1.3 by mokatoxin-1 were determined by fitting the dose-response data and kon and koff were calculated as described by Goldstein and Miller, 1993 (Biophys J. 1993 65 (4):1613-1619).
In general terms: In two-electrode clamp one electrode senses voltage and the other passes current.

A further assay deals with Kv1.3 (Homo sapiens, UniProt P22001). In words: Phage panning on live cells (HEK, COS) expressing Kv1.3 channels. The assay is classed as binding. Further details: expressed in transfected cells; host or cells: HEK (HEK293) and COS cells. Conditions: for enrichment of KTX, Kv1.3 transfected vs. vector cells: 5×10^11 phagemids; for OUTPUT KTX (%): mixture of KTX and nonspecific phages, one round of panning. An excerpt: In another example, receptors may be expressed in cells. For example, cells may be stably or transiently transfected with one or more receptors can be utilized as expressed in native tissues (Clackson and Lowman, Phage display. Oxford University Press, 2004; Barbas et al., Phage display. A laboratory manual. Cold Spring Harbor Laboratory Press, 2001; Sambrook et al., Molecular Cloning: A Laboratory Manual. Vols 1-3. Cold Spring Harbor Laboratory Press, 1989). In one example, HEK (mammalian human embryonic kidney) and COS cells expressing wild-type Kv1.3 or Kv1.3-PDZ domain chimera were employed, the latter target allowing a “double” panning (e.g., as a control or to enhance binding affinity) using phages expressing kaliotoxin-1 and/or PDZ-binder domain.
Panning may be performed by the binding of ligands to the receptors, followed by washes and ligand recovery. In one example, panning is performed according to standard methods of phage display (Clackson and Lowman, Phage display. Oxford University Press, 2004; Barbas et al., Phage display. A laboratory manual. Cold Spring Harbor Laboratory Press, 2001). Panning may be repeated until the desired enrichment is achieved. In addition, libraries can be pre-depleted on surfaces or cells that contain no receptors or on a receptor where the putative ligand receptor domain may be directly or indirectly altered. Additionally, any and all conditions of panning may be varied, altered or changed to achieve optimal results, such as the isolation of a specific ligand. Panning variations include, but are not limited to, the presence of competing ligand(s), presence of excess target(s), length and temperature of binding, pre-absorption of the ligand library on one or more different receptor(s) or cells or surfaces, composition of binding solution (e.g., ionic strength), stringency of washing, and recovery procedures. Phages recovered from panning may be processed for further rounds of panning, functional analysis, and/or sequencing/genotyping to deduce the resulting ligands' amino acid sequence or biological properties (Clackson and Lowman, Phage display. Oxford University Press, 2004; Barbas et al., Phage display. A laboratory manual. Cold Spring Harbor Laboratory Press, 2001).
5×10^11 phagemids were added to the cell cultures in “B.”
A library of KTX-like ligands, with a calculated diversity of greater than 11,000, was created de novo. The library comprised approximately 8% KTX-like ligands and 92% non-KTX-like ligands. The library of ligands was screened on Kv1.3 receptors expressed in HEK and COS cells.
Transfection efficiency was monitored with cotransfection of gene encoding for the green fluorescence protein (GFP) and observing the fluorescence after 1-2 days following transfection.
KTX and mokatoxin-1 are Kv1.3 specific scorpion toxins. […] Following incubation of the cells with the phages, cells were subjected to wash to remove the unbound/weakly bound phages. The remaining bound phages were eluted from the cells and transformed into XL1 E. coli, and plated onto LB plates with antibiotic selecting for the phagemids.

A further assay deals with T2, Kv1.2 (Rattus norvegicus, UniProt P63142).
T2 construct: expressed in transfected cells; host or cells: Xenopus laevis oocytes (cRNA injection)
In words: Two electrode voltage clamp, Xenopus oocytes, Kv1.2. The assay is classed as cell-based. The method, then: as §1, §2

Setting [2] is: HEK cells, kaliotoxin-1-phage 1 out of 10^10 phage.

T1 sequence (Q08460 whole entry): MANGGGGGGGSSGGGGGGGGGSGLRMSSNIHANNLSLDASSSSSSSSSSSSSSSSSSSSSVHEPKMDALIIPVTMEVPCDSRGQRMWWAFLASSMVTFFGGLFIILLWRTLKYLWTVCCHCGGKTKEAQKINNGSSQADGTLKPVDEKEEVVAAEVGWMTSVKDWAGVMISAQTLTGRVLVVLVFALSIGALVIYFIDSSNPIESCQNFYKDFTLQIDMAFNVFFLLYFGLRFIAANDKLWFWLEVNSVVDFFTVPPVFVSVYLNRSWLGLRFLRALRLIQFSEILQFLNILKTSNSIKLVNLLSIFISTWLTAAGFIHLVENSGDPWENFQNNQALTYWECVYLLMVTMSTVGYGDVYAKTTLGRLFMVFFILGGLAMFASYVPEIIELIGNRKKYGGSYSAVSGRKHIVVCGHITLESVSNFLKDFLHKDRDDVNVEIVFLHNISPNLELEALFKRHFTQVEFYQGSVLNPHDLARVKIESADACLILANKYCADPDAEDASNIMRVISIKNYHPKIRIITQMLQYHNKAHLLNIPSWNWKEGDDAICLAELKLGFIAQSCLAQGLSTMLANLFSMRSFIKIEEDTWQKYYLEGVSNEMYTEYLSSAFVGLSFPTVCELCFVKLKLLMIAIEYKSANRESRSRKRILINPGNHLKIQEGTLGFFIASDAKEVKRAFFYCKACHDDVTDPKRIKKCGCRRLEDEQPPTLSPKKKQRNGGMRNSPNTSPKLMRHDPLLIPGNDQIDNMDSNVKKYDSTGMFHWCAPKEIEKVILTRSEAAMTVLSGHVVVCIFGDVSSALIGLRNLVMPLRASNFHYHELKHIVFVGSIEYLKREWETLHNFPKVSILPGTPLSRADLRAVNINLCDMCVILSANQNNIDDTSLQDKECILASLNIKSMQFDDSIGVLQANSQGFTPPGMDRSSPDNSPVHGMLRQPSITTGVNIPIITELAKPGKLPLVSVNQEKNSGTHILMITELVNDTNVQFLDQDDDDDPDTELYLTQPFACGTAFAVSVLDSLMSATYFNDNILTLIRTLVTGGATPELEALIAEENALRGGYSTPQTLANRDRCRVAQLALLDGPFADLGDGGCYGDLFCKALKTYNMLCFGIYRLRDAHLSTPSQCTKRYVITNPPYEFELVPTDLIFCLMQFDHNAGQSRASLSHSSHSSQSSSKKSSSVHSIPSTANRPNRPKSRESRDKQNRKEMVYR
Kv1.3, sequence (P22001 whole entry): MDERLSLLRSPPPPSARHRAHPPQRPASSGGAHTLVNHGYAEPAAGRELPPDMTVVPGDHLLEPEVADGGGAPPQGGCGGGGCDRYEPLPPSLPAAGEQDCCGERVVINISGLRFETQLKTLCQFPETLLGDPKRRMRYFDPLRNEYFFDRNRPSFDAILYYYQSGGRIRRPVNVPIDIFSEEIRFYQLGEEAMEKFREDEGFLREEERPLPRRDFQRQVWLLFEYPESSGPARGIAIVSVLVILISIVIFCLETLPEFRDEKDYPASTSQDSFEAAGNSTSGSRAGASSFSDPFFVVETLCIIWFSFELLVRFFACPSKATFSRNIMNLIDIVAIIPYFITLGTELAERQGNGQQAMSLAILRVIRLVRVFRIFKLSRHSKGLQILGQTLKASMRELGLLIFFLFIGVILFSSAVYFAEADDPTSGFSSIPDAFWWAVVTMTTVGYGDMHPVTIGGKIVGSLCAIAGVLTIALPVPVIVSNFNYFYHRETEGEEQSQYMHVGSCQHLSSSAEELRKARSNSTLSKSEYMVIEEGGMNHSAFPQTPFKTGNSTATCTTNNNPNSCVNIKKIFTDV
T2 sequence (P63142 whole entry): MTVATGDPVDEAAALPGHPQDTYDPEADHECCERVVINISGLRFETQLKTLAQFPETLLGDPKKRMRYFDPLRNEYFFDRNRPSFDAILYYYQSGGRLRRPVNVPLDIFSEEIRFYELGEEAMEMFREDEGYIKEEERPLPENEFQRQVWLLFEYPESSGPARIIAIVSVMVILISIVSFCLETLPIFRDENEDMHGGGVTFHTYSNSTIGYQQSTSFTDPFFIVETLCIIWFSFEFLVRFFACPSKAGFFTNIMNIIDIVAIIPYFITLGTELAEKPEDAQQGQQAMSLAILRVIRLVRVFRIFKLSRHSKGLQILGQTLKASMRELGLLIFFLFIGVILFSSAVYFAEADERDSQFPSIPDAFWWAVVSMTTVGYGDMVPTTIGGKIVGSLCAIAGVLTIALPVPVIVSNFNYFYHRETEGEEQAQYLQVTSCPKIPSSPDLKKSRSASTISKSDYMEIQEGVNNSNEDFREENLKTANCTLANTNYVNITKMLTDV

With `CC[C@H](C)[C@H](NC(=O)[C@H](CCC(=O)O)NC(=O)[C@@H](NC(=O)CN)C(C)C)C(=O)N[C@@H](CC(N)=O)C(=O)N[C@H](C(=O)N[C@@H](CCCCN)C(=O)N[C@H]1CSSC[C@@H]2NC(=O)[C@H](CCCCN)NC(=O)CNC(=O)[C@H](Cc3ccccc3)NC(=O)[C@H](CCCNC(=N)N)NC(=O)[C@H](CCSC)NC(=O)CNC(=O)[C@H](C)NC(=O)[C@H](CC(=O)O)NC(=O)[C@H](CCCCN)NC(=O)[C@@H]3CSSC[C@@H](C(=O)N[C@H](C(=O)N4CCC[C@H]4C(=O)N[C@@H](CCCCN)C(=O)O)[C@@H](C)O)NC(=O)[C@H](Cc4c[nH]cn4)NC(=O)[C@H](CSSC[C@H](NC(=O)[C@H](CCC(N)=O)NC(=O)[C@@H]4CCCN4C(=O)[C@H](CO)NC(=O)CNC(=O)[C@H](CO)NC1=O)C(=O)N[C@@H](CC(C)C)C(=O)N[C@@H](CCCCN)C(=O)N1CCC[C@H]1C(=O)N3)NC(=O)[C@H](CCCCN)NC(=O)[C@H](CCCNC(=N)N)NC(=O)[C@H](CC(N)=O)NC(=O)[C@H](CCSC)NC2=O)C(C)C` [KTX, kaliotoxin-1], the “Output (% Ligands) Anti-S6b (n = 20)” value in assay [1] was found to be 0%. Besides, the ileum contractions entry in the assay on guinea pig ileum is “contractions”. Moreover, the IC50 on BK is around 5 nM; on Kv1.2 it was 1.4 nM. Besides, the “Koff [s]^−1” value is 0.0211 ± 0.0008 [s]^−1 on BK (mBK) and 0.21 ± 0.01 [s]^−1 at Kv1.2 (rKv1.2). Further, the entries for the “Kon [M · s]^−1” value at BK (mBK) and on Kv1.2 (rKv1.2) were 21 · 10^3 ± 4 · 10^3 [M · s]^−1 and 13 · 10^6 ± 3 · 10^6 [M · s]^−1, respectively. Further, the “enrichment of KTX, Kv1.3 transfected vs. vector cells” value at Kv1.3 (COS cells) was around 10 fold; at Kv1.3 (HEK cells), around 20 fold. Besides, the “2nd round (n = 20) %” value on Kv1.3 (setting [2]) came to 0%. On Kv1.3 (setting [2]), the “3rd round (n = 12) %” value is on record as 58%. For the same compound, the “OUTPUT KTX (%)” value is 26 (n = 20) % at Kv1.3 (input ratio 1/99, actual 5/95 (n = 20)); 22 (n = 18) % at Kv1.3 (input ratio 10/90, actual 0/100 (n = 10)); 30 (n = 30) % on Kv1.3 (input ratio 10/90, actual 7/93 (n = 30)).

The IC50 is the concentration that inhibits the measured activity by half. Lower therefore signals higher potency.
